According to patent publication US20250066377A1, “AMINO CHROMEN-2-ONE MODULATORS OF POLRMT” (Pretzel Therapeutics, Inc., priority 2021, published 2025):

Biological target: POLRMT (Homo sapiens (Human), UniProt O00411)
Assay: POLRMT homogeneous TR-FRET mitochondrial transcription assay
Type: biochemical
Details: inhibition of POLRMT; TR-FRET detection of 407 bp RNA transcript; 7.5 nM POLRMT, 15 nM TFB2M, 30 nM TFAM, 60 minutes at 37° C.
Experimental: The inhibitory activity of the compounds of the present invention against POLRMT were determined by assays based on Bergbrede, T., et al., “An adaptable high-throughput technology enabling the identification of specific transcription modulators,” SLAC Discov., 22, 378-386 (2017).
The ability of some compounds of the present invention to inhibit POLRMT were determined in a homogeneous TR-FRET Assay using high-throughput screening in a 384-well plate format. This method is used to monitor the activity of mitochondrial transcription through measurement of its product, a 407 bp long RNA transcript. Detection of the product is facilitated by hybridization of two DNA-oligonucleotide probes to specific and adjacent sequences within the RNA product sequence. Upon annealing of the probes, two fluorophores are coupled directly to an acceptor nucleotide probe (ATTO647, 5′), or introduced via a coupled streptavidin with a biotinylated donor nucleotide probe (Europium cryptate) that is brought into sufficient proximity to serve as a fluorescence-donor-acceptor pair. Thus, a FRET signal at 665 nm is generated upon excitation at 340 nm.
Proteins used as transcription factors (POLRMT: NP_005026.3, TFAM: NP_003192.1, TFB2M: NP_071761.1) are diluted from their stocks to working concentrations of 1 μM, 20 μM and 4 μM respectively, in a dilution buffer containing 20 mM Tris-HCl (pH 8.0), 200 mM NaCl, 10% (v/v) glycerol, 1 mM Dithiothreitol (DTT), 0.5 mM EDTA.
DNA template is a pUC18 plasmid with the mitochondrial light strand promotor sequence (1-477) cloned between HindIII and BamHI sites. The DNA template is restriction linearized proximal to the promotor 3′-end (pUC-LSP).
The reaction mixture (10 uL) containing 7.5 nM POLRMT, 15 nM of TFB2M, 30 nM of TFAM, 0.5 nM of DNA template and 500 μM nucleotide triphosphate mix (NTPs) in a reaction buffer (containing 10 mM Tris-HCl (pH 7.5), 10 mM MgCl2, 40 mM NaCl, 10 mM DTT, 0.005% (w/v) Tween-20, 160 units/ml Rnase inhibitor and 0.1 mg/mL BSA) are dispensed to compounds in microplates, using a Thermo Multidrop® dispenser, and incubated at 37° C. in a VWR INCU-Line incubator for 60 minutes after mixing. No nucleotide triphosphate mix is added to negative control samples. Microplates with compounds to be tested in the assay are prepared from 10 mM compound stocks in 100% DMSO, equal amounts of DMSO without any compound are added to positive control and negative control samples.
During the incubation, a mix of the detection reagents is prepared in a buffer such that the enzymatic reaction is terminated due to chelating of Mg-ions and increased ionic strength, containing 50 mM Tris-HCl (pH 7.5), 700 mM NaCl, 20 mM EDTA, and 0.01% (w/v) Tween-20. Europium-streptavidin is pre-incubated with a 200-fold molar excess of a random sequence oligonucleotide to block unspecific binding of oligo, for two hours at ambient temperature in the dark. Afterwards, the blocked Europium-streptavidin is kept on ice until use.
At the end of the enzymatic reaction time, 5 μL detection oligo mix in the detection buffer is added, and assay plates are mixed and kept at ambient temperature for one hour, protected from light. The concentration of the Acceptor nucleotide oligo (e.g., ATTO647N-5′-[…]-3′) and Donor nucleotide oligo (e.g., bio-5′-AACACATCTCT(-bio)GCCAAACCCCA-bio-3′) in each assay well is 1 nM, and 3 nM, respectively.
After incubation with oligo mix, 5 μL of pre-blocked Europium-streptavidin reagent is dispensed to each assay well, assay plates are again mixed and kept at ambient temperature for one hour, protected from light.
The generated signal is measured with BMG Pherastar microtiter plate reader with a TRF light unit, using excitation at 340 nm, an integration time of 200 μs, and a delay time of 100 μs, before detection at 620 nm and 665 nm. The ratio of donor- and acceptor-fluorescence is used as a measure of the generated transcript product (i.e. enzymatic activity).

Chain of POLRMT (O00411 42-1230): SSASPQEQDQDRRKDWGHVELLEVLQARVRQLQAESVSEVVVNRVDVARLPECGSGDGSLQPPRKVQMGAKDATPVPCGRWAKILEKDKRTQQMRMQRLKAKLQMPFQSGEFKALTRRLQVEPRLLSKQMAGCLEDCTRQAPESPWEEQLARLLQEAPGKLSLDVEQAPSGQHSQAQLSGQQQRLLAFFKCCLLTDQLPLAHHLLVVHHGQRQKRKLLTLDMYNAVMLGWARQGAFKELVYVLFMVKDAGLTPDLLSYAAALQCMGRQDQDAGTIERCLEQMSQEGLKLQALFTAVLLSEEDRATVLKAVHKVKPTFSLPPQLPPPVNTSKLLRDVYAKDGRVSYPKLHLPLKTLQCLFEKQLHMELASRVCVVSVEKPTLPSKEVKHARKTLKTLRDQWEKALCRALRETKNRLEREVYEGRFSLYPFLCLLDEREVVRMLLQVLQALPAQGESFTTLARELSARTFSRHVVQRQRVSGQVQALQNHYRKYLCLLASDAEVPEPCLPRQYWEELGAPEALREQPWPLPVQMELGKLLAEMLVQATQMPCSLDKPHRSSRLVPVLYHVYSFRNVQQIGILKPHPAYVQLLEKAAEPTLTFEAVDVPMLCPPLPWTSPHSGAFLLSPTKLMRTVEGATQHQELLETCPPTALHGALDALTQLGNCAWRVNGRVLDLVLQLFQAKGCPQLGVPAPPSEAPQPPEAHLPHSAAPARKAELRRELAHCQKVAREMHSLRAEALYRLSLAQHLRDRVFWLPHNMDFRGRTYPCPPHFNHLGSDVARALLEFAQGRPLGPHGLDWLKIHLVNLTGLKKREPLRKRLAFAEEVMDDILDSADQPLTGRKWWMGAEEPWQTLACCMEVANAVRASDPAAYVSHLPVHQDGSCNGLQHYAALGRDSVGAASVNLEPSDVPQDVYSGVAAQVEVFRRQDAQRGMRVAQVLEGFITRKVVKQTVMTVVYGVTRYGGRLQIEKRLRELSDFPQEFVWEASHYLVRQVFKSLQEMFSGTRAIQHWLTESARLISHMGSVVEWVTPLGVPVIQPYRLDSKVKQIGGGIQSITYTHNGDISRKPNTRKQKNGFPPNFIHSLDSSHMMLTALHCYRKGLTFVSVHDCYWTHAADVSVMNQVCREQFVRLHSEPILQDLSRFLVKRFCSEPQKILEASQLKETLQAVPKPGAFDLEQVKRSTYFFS

Row | Compound | IC50
1 | CC(=O)NC1CCN(c2ccc3c(-c4ccccc4C)cc(=O)oc3n2)C1 (stereo not drawn) [Example 22, N-(1-(2-oxo-4-(o-tolyl)-2H-pyrano[2,3-b]pyridin-7-yl)pyrrolidin-3-yl)acetamide] | 3 µM
2 | Cc1ccccc1-c1cc(=O)oc2nc(N(C)CCC(N)=O)ccc12 [Example 42] | 3 µM
3 | CN(CCC(=O)O)c1ccc2c(-c3ccc(F)cc3Cl)cc(=O)oc2n1 [Example 55, 3-((4-(2-chloro-4-fluorophenyl)-2-oxo-2H-pyrano[2,3-b]pyridin-7-yl)(methyl)amino)propanoic acid] | 12 µM
4 | Cc1ccccc1-c1cc(=O)oc2nc(N3CCN(C)C(=O)C3)ccc12 [Example 11, 7-(4-methyl-3-oxopiperazin-1-yl)-4-(o-tolyl)-2H-pyrano[2,3-b]pyridin-2-one] | 47 µM
5 | CN(CC(=O)O)c1ccc2c(-c3ccc(F)cc3Cl)cc(=O)oc2n1 [Example 44, N-(4-(2-chloro-4-fluorophenyl)-2-oxo-2H-pyrano[2,3-b]pyridin-7-yl)-N-methylglycine] | 5 µM
6 | COC1CN(c2ccc3c(-c4ccccc4C)cc(=O)oc3n2)C1 [Example 20, 7-(3-methoxyazetidin-1-yl)-4-(o-tolyl)-2H-pyrano[2,3-b]pyridin-2-one] | 2 µM
7 | Cc1ccccc1-c1cc(=O)oc2nc(N3CCN(C)CC3)ccc12 [Example 09, 7-(4-methylpiperazin-1-yl)-4-(o-tolyl)pyrano[2,3-b]pyridin-2-one] | > 100 µM
8 | Cc1ccccc1-c1cc(=O)oc2nc(N(C)CCC(=O)O)ccc12 [Example 41, 3-[methyl-[4-(o-tolyl)-2-oxo-pyrano[2,3-b]pyridin-7-yl]amino]propanoic acid] | 7 µM
9 | Cc1ccccc1-c1cc(=O)oc2nc(N(C)C(C)C(N)=O)ccc12 (single isomer, unassigned) [Example 49, 2-(methyl(2-oxo-4-(o-tolyl)-2H-pyrano[2,3-b]pyridin-7-yl)amino)propanamide] | 1 µM
10 | CN(CC(N)=O)c1ccc2c(-c3ccc(F)cc3Cl)cc(=O)oc2n1 [Example 46, 2-((4-(2-chloro-4-fluorophenyl)-2-oxo-2H-pyrano[2,3-b]pyridin-7-yl)(methyl)amino)acetamide] | 2 µM
11 | Cc1ccccc1-c1cc(=O)oc2nc(N3CCC(C(N)=O)C3)ccc12 (racemic) [Example 16, 1-(2-oxo-4-(o-tolyl)-2H-pyrano[2,3-b]pyridin-7-yl)pyrrolidine-3-carboxamide] | 2 µM
12 | Cc1ccccc1-c1cc(=O)oc2nc(N3CCCC3C(=O)O)ccc12 (single isomer, unassigned) [Example 38, 1-(2-oxo-4-(o-tolyl)-2H-pyrano[2,3-b]pyridin-7-yl)pyrrolidine-2-carboxylic acid] | 1 µM
13 | Cc1ccccc1-c1cc(=O)oc2nc(N3CCOCC3C)ccc12 (single isomer, unassigned) [Example 15, 7-(3-methylmorpholino)-4-(o-tolyl)-2H-pyrano[2,3-b]pyridin-2-one] | 2 µM
14 | CN(CCC(N)=O)c1ccc2c(-c3ccc(F)cc3Cl)cc(=O)oc2n1 [Example 52, 3-((4-(2-chloro-4-fluorophenyl)-2-oxo-2H-pyrano[2,3-b]pyridin-7-yl)(methyl)amino)propanamide] | 10 µM
15 | COC1CCN(c2ccc3c(-c4ccc(F)cc4Cl)cc(=O)oc3n2)C1 (single isomer, unassigned) [Example 26, 4-(2-chloro-4-fluorophenyl)-7-(3-methoxypyrrolidin-1-yl)-2H-pyrano[2,3-b]pyridin-2-one] | 21 µM
16 | COCCN(C)c1ccc2c(-c3ccccc3C)cc(=O)oc2n1 [Example 04, 7-((2-methoxyethyl)(methyl)amino)-4-(o-tolyl)-2H-pyrano[2,3-b]pyridin-2-one] | 2 µM
17 | COC1CCN(c2ccc3c(-c4ccc(F)cc4Cl)cc(=O)oc3n2)C1 (single isomer, unassigned) [Example 25, 4-(2-chloro-4-fluorophenyl)-7-(3-methoxypyrrolidin-1-yl)-2H-pyrano[2,3-b]pyridin-2-one] | 1 µM
18 | Cc1ccccc1-c1cc(=O)oc2nc(N3CCC(C)(O)C3)ccc12 (single isomer, unassigned) [Example 27, 7-(3-hydroxy-3-methylpyrrolidin-1-yl)-4-(o-tolyl)-2H-pyrano[2,3-b]pyridin-2-one] | 1 µM
19 | Cc1ccccc1-c1cc(=O)oc2nc(N3CCC(C(N)=O)C3)ccc12 (single isomer, unassigned) [Example 29, 1-(2-oxo-4-(o-tolyl)-2H-pyrano[2,3-b]pyridin-7-yl)pyrrolidine-3-carboxamide] | 7 µM

Further molecules by falling IC50, results first:

Row | IC50 | Compound
20 | 1 µM | CNC(=O)CN(C)c1ccc2c(-c3ccc(F)cc3Cl)cc(=O)oc2n1 [Example 45, 2-((4-(2-chloro-4-fluorophenyl)-2-oxo-2H-pyrano[2,3-b]pyridin-7-yl)(methyl)amino)-N-methylacetamide]
21 | 1 µM | COC(=O)[C@H](C)N(C)c1ccc2c(-c3ccc(F)cc3Cl)cc(=O)oc2n1 [Example 53, methyl N-(4-(2-chloro-4-fluorophenyl)-2-oxo-2H-pyrano[2,3-b]pyridin-7-yl)-N-methyl-L-alaninate]
22 | 0.9 µM | Cc1ccccc1-c1cc(=O)oc2nc(N3CCC(C(N)=O)C3)ccc12 (single isomer, unassigned) [Example 30, 1-(2-oxo-4-(o-tolyl)-2H-pyrano[2,3-b]pyridin-7-yl)pyrrolidine-3-carboxamide]
23 | 0.5 µM | Cc1ccccc1-c1cc(=O)oc2nc(N(C)CC(N)=O)ccc12 [Example 40, 2-[methyl-[4-(o-tolyl)-2-oxo-pyrano[2,3-b]pyridin-7-yl]amino]acetamide]
24 | 0.4 µM | Cc1cccc(C)c1-c1cc(=O)oc2nc(N3CCC[C@H]3C(=O)O)ccc12 [Example 50, (4-(2,6-dimethylphenyl)-2-oxo-2H-pyrano[2,3-b]pyridin-7-yl)-L-proline]
25 | 0.4 µM | COC1CCN(c2ccc3c(-c4ccccc4C)cc(=O)oc3n2)C1 (racemic) [Example 07, 7-(3-methoxypyrrolidin-1-yl)-4-(o-tolyl)-2H-pyrano[2,3-b]pyridin-2-one]
26 | 0.3 µM | Cc1ccccc1-c1cc(=O)oc2nc(N3CCC3)ccc12 [Example 19, 7-(azetidin-1-yl)-4-(o-tolyl)-2H-pyrano[2,3-b]pyridin-2-one]
27 | 0.2 µM | Cc1cccc(C)c1-c1cc(=O)oc2nc(N(C)CC(N)=O)ccc12 [Example 56, 2-((4-(2,6-dimethylphenyl)-2-oxo-2H-pyrano[2,3-b]pyridin-7-yl)(methyl)amino)acetamide]
28 | 0.2 µM | COC(=O)CN(C)c1ccc2c(-c3ccccc3C)cc(=O)oc2n1 [Example 35, methyl N-methyl-N-(2-oxo-4-(o-tolyl)-2H-pyrano[2,3-b]pyridin-7-yl)glycinate]
29 | 0.2 µM | COC(=O)[C@@H](C)N(C)c1ccc2c(-c3ccc(F)cc3Cl)cc(=O)oc2n1 [Example 54, methyl N-(4-(2-chloro-4-fluorophenyl)-2-oxo-2H-pyrano[2,3-b]pyridin-7-yl)-N-methyl-D-alaninate]
30 | 0.09 µM | COC1CCN(c2ccc3c(-c4ccccc4C)cc(=O)oc3n2)C1 (single isomer, unassigned) [Example 23, 7-(3-methoxypyrrolidin-1-yl)-4-(o-tolyl)-2H-pyrano[2,3-b]pyridin-2-one]
